The results in this text go back to PubChem BioAssay (NCI).

Each structure is given as a SMILES string.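 All cell lines were grown in 96-well plates and treated with compound for 48 hours. TGI is the concentration that stops growth completely.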

Test systems include EKVX NSCLC; MDA-N; PC-3 prostate; OVCAR-8 ovarian; UO-31 renal; SK-MEL-28 melanoma; NCI/ADR-RES ovarian; 786-0 renal; SNB-19 CNS; HOP-92 NSCLC; MCF7 breast.
Assay in all cases: growth of human tumour cells (NCI), 48 h

`O=C(Nc1nn[nH]n1)c1nc(-c2ccccc2)cc(=O)[nH]1`: the TGI with EKVX NSCLC, with MDA-N, with PC-3 prostate, in the assay with OVCAR-8 ovarian, with UO-31 renal and in the assay with SK-MEL-28 melanoma was over 100 µM in each case. Also, the TGI in the assay with NCI/ADR-RES ovarian, in the assay on 786-0 renal, in the assay with SNB-19 CNS, with HOP-92 NSCLC and with MCF7 breast was over 100 µM in each case.
Consider `Cc1c([C@H](C)[C@@H]2NC[C@@H](C)C[C@H]2O)ccc2c1C[C@H]1[C@H]2CC=C2C[C@@H](O)CC[C@@]21C`, for which the TGI with EKVX NSCLC is 8.53 µM; in the assay on MDA-N, 31 µM; in the assay on PC-3 prostate, 32.1 µM; in the assay with OVCAR-8 ovarian, over 100 µM; with UO-31 renal it was 37.5 µM; in the assay with SK-MEL-28 melanoma, 37.5 µM. In addition, the TGI in the assay on NCI/ADR-RES ovarian was over 100 µM; in the assay with 786-0 renal, 37.9 µM; in the assay with SNB-19 CNS it was 82.3 µM; with HOP-92 NSCLC, 23.3 µM; in the assay with MCF7 breast, 31.5 µM.
In the case of `N#Cc1c(N)nc2c3c1NC(=O)C(C(N)=O)C3c1ccccc1O2` (stereo not drawn), the TGI in the assay with EKVX NSCLC, in the assay on MDA-N, in the assay with PC-3 prostate, in the assay on OVCAR-8 ovarian, in the assay with UO-31 renal and with SK-MEL-28 melanoma was over 100 µM each time. Besides, the TGI in the assay with NCI/ADR-RES ovarian was over 100 µM; in the assay on 786-0 renal it was over 100 µM; with SNB-19 CNS, over 100 µM; in the assay with HOP-92 NSCLC, 71.9 µM; with MCF7 breast, over 100 µM.
Regarding `CC(C)(C)OC(=O)c1ccc(NCC2=C(Br)C(=O)C=CC2=O)cc1`, the TGI with EKVX NSCLC is 53.9 µM; in the assay with MDA-N, 48.1 µM; in the assay with PC-3 prostate, over 100 µM; in the assay on OVCAR-8 ovarian it was 39.8 µM; in the assay with UO-31 renal, 28.6 µM; with SK-MEL-28 melanoma, 41.2 µM. Also, the TGI was 62.9 µM in the assay on NCI/ADR-RES ovarian; 37.5 µM in the assay on 786-0 renal; over 100 µM in the assay with SNB-19 CNS; 28.4 µM with HOP-92 NSCLC; 48.4 µM in the assay with MCF7 breast.
With `CC(C)=CCC[C@@H](C)C1=C(O)C(Nc2ccccc2I)=C(C)C(=O)C1=O`, the TGI in the assay on EKVX NSCLC is over 75 µM; in the assay on MDA-N it was over 75 µM; in the assay on PC-3 prostate, over 51.8 µM; in the assay with OVCAR-8 ovarian it was over 32.2 µM; in the assay with UO-31 renal it was 35.7 µM; with SK-MEL-28 melanoma, over 75 µM. The TGI is over 17.6 µM in the assay with NCI/ADR-RES ovarian; over 58.7 µM with 786-0 renal; over 75 µM in the assay with SNB-19 CNS; 50.2 µM in the assay with HOP-92 NSCLC; over 75 µM with MCF7 breast.
Consider `CCN(CC)C(=O)Cn1c2c(c3ccccc31)CCCC2`, for which the TGI in the assay with EKVX NSCLC, in the assay with MDA-N, with PC-3 prostate, in the assay with OVCAR-8 ovarian, in the assay with UO-31 renal and in the assay with SK-MEL-28 melanoma was over 100 µM throughout. Moreover, the TGI with NCI/ADR-RES ovarian, in the assay on 786-0 renal, in the assay with SNB-19 CNS, in the assay with HOP-92 NSCLC and in the assay with MCF7 breast was over 100 µM throughout.
Take `CCN(CC)C(=O)CCN1CC1`: the TGI in the assay on EKVX NSCLC, in the assay with MDA-N, in the assay on PC-3 prostate, in the assay on OVCAR-8 ovarian, with UO-31 renal and with SK-MEL-28 melanoma was over 10 µM throughout. The TGI with NCI/ADR-RES ovarian, in the assay with 786-0 renal, in the assay on SNB-19 CNS, in the assay with HOP-92 NSCLC and with MCF7 breast was over 10 µM each time.
As for `CC(CNC(N)=O)NC(N)=O` (stereo not drawn), the TGI with EKVX NSCLC, in the assay with MDA-N, with PC-3 prostate, in the assay on OVCAR-8 ovarian, in the assay on UO-31 renal and with SK-MEL-28 melanoma was over 100 µM each time. For the same molecule, the TGI in the assay on NCI/ADR-RES ovarian, with 786-0 renal, in the assay with SNB-19 CNS, in the assay on HOP-92 NSCLC and in the assay on MCF7 breast was over 100 µM throughout.
Regarding `COC1=CC(=O)N(C)C(O)C1(C#N)OC1OC(CO)C(O)C(O)C1O` (stereo not drawn), the TGI in the assay with EKVX NSCLC, with MDA-N, in the assay on PC-3 prostate, in the assay on OVCAR-8 ovarian, in the assay on UO-31 renal and in the assay on SK-MEL-28 melanoma was over 100 µM in each case. The TGI with NCI/ADR-RES ovarian, with 786-0 renal, in the assay with SNB-19 CNS, with HOP-92 NSCLC and with MCF7 breast was over 100 µM in each case.
On to `NCCSCCC(=O)O`, for which the TGI in the assay on EKVX NSCLC was over 100 µM; with MDA-N it was over 100 µM; in the assay with PC-3 prostate it was over 100 µM; in the assay with OVCAR-8 ovarian, over 100 µM; in the assay with UO-31 renal, over 100 µM; in the assay with SK-MEL-28 melanoma, over 71.8 µM. Also, the TGI in the assay with NCI/ADR-RES ovarian, in the assay with 786-0 renal, in the assay on SNB-19 CNS, with HOP-92 NSCLC and in the assay with MCF7 breast was over 100 µM in each case.
Regarding `COC(=O)Nc1nc2ccc(NC(=O)c3ccc(I)cc3)cc2[nH]1`, the TGI in the assay on EKVX NSCLC, in the assay with MDA-N, with PC-3 prostate, with OVCAR-8 ovarian, in the assay with UO-31 renal and in the assay on SK-MEL-28 melanoma was over 100 µM throughout. Further, the TGI with NCI/ADR-RES ovarian, with 786-0 renal, in the assay on SNB-19 CNS, with HOP-92 NSCLC and in the assay with MCF7 breast was over 100 µM throughout.
As to `C=C1CC(C)(c2cccc(Nc3nc4ccccc4c4occc34)c2)OC1=O` (stereo not drawn), the TGI stood at 27.9 µM in the assay with EKVX NSCLC; 18.3 µM in the assay with MDA-N; 21.9 µM with PC-3 prostate; 21.3 µM with OVCAR-8 ovarian; 5.04 µM in the assay on UO-31 renal; 26.8 µM in the assay with SK-MEL-28 melanoma. The TGI in the assay with NCI/ADR-RES ovarian stood at 26.8 µM; in the assay with 786-0 renal, 3.08 µM; in the assay with SNB-19 CNS it was 59.4 µM; in the assay with HOP-92 NSCLC, 7.29 µM; in the assay with MCF7 breast it was 16.4 µM.
`Cc1ncc(COP(=O)(O)O)c(/C=C2\SC(=S)NC2=O)c1O`: the TGI with EKVX NSCLC, with MDA-N, in the assay with PC-3 prostate, in the assay on OVCAR-8 ovarian, in the assay with UO-31 renal and in the assay on SK-MEL-28 melanoma was over 100 µM each time. Moreover, the TGI with NCI/ADR-RES ovarian, in the assay with 786-0 renal, in the assay on SNB-19 CNS, in the assay with HOP-92 NSCLC and in the assay with MCF7 breast was over 100 µM each time.
For the molecule `CCSC1=CC2(O)N(CCc3ccc(OC)c(OC)c3)C(=O)CC2(C(=O)OC)CC1=O` (stereo not drawn), the TGI in the assay with EKVX NSCLC was over 100 µM; in the assay on MDA-N, over 100 µM; in the assay on PC-3 prostate it was 35.5 µM; in the assay on OVCAR-8 ovarian, 31 µM; with UO-31 renal it was 33.1 µM; in the assay with SK-MEL-28 melanoma, over 100 µM. The TGI was over 100 µM in the assay with NCI/ADR-RES ovarian; 34 µM with 786-0 renal; over 100 µM in the assay with SNB-19 CNS; 29.7 µM with HOP-92 NSCLC; 40.3 µM in the assay with MCF7 breast.
Take `NC(N)=NC1C(O)C(O)C(O)C(N=C(N)N)C1O` (stereo not drawn): the TGI in the assay with EKVX NSCLC, with MDA-N, with PC-3 prostate, with OVCAR-8 ovarian, in the assay on UO-31 renal and with SK-MEL-28 melanoma was over 100 µM in each case. Also, the TGI in the assay with NCI/ADR-RES ovarian, with 786-0 renal, with SNB-19 CNS, in the assay on HOP-92 NSCLC and in the assay on MCF7 breast was over 100 µM in each case.
Turning to `CCOC(=O)c1cc(Br)c(-c2onc(C)c2Br)[nH]1`, the TGI is over 100 µM in the assay on EKVX NSCLC; over 100 µM with MDA-N; over 100 µM in the assay with PC-3 prostate; 82.6 µM in the assay with OVCAR-8 ovarian; over 100 µM with UO-31 renal; over 100 µM with SK-MEL-28 melanoma. Also, the TGI is over 100 µM in the assay on NCI/ADR-RES ovarian; 59.3 µM with 786-0 renal; 74.8 µM with SNB-19 CNS; over 100 µM in the assay on HOP-92 NSCLC; over 100 µM with MCF7 breast.
On to `O=C1/C(=C/c2cccc3ccccc23)CCc2ccc([N+](=O)[O-])cc21`, for which the TGI with EKVX NSCLC is over 100 µM; in the assay with MDA-N, 23.4 µM; in the assay with PC-3 prostate, over 100 µM; with OVCAR-8 ovarian, over 100 µM; in the assay with UO-31 renal, over 100 µM; in the assay with SK-MEL-28 melanoma, over 100 µM. Moreover, the TGI with NCI/ADR-RES ovarian was over 100 µM; in the assay on 786-0 renal, 65.5 µM; in the assay on SNB-19 CNS it was 43.7 µM; in the assay with HOP-92 NSCLC, 74.4 µM; in the assay on MCF7 breast it was 86.5 µM.
Regarding `CC(C)Oc1cccc(N2C(Nc3ccccc3)=Nc3ccncc3S2(=O)=O)c1`, the TGI in the assay on EKVX NSCLC is over 100 µM; in the assay with MDA-N, over 100 µM; in the assay with PC-3 prostate it was 45.6 µM; with OVCAR-8 ovarian, 43.4 µM; in the assay on UO-31 renal, over 100 µM; with SK-MEL-28 melanoma it was 17.2 µM. In addition, the TGI was 53.3 µM with NCI/ADR-RES ovarian; 52.5 µM with 786-0 renal; over 100 µM in the assay on SNB-19 CNS; 49 µM in the assay with HOP-92 NSCLC; over 100 µM in the assay on MCF7 breast.
